Data reported in paper PMC3936431 (Biomolecules & Therapeutics, 2014).

Tests used:
[1] = Stability in stock solutions and plasma samples; type: physicochemical, rabbits; conditions: for stock solution stability, mean %change: room temperature 12 h and 4°C 30 days
[2] = Pharmacokinetic studies after single intravenous or rectal administration; conditions: for Tmax / AUC(0-inf) / AUC(0-t): New Zealand white, rabbit, in vivo; for AUC(0-inf): AUC0-∞; for AUC(0-inf) / AUC(0-t) / AUC0-∞ / AUC0–30h: rabbits, plasma; for AUC(0-t): AUC0–30h
[3] = In vitro release, USP paddle method, phosphate buffer pH 7.4; type: physicochemical; conditions: in the first 30 min; paddle 100 rpm, phosphate buffer pH 7.4, 37°C
[4] = 100 mg/kg, rectal administration (suppository)
[5] = iv, 50 mg/kg, intravenous administration
[6] = intravenous administration, 50 mg/kg
[7] = rectal administration (suppository), 100 mg/kg

Row | Structure (SMILES) | stock solution stability ([1]; 4°C for 30 days) | stock solution stability, mean %change [1] [%] | stock solution stability ([1]; room temperature for 12 h) | Tmax ([2]; 100 mg/kg) [h] | AUC(0-inf) [2, 4] [ng·h/mL] | AUC(0-t) [2, 4] [ng·h/mL] | Tmax ([2]; iv, 50 mg/kg) [h] | AUC(0-inf) [2, 5] [ng·h/mL] | AUC(0-t) [2, 5] [ng·h/mL] | AUC0-∞ [2, 6] [ng·h/mL] | AUC0–30h [2, 6] [ng·h/mL] | AUC0-∞ [2, 7] [ng·h/mL] | AUC0–30h [2, 7] [ng·h/mL] | drug released [3] [%]
1 | CC[C@@]1(O)C(=O)OCc2c1cc1n(c2=O)Cc2cc3ccccc3nc2-1 [IS, camptothecin] | stable | < 7.7 | stable | – | – | – | – | – | – | – | – | – | – | –
2 | CCc1c2c(nc3ccc(OC(=O)N4CCC(N5CCCCC5)CC4)cc13)-c1cc3c(c(=O)n1C2)COC(=O)[C@]3(O)CC [irinotecan, 7-ethyl-10-[4-(1-piperidino)-1-piperidino]-carbonyloxy-camptothecin] | stable | < 7.7 | stable | 4 | 41600 ± 7200 | 32200 ± 6200 | 0.25 | 82300 ± 9500 | 71300 ± 8800 | 82330 ± 9470 | 71310 ± 8750 | 41620 ± 7240 | 32150 ± 6150 | 95
